The results in this text go back to patent US4400387A, “Indolizine derivatives and uses in therapeutics” (S. A. Labaz-Sanofi N.V., priority 1979, dated 1983).

Structures are written as SMILES.

For data set [1], the target named is T1, adenosine deaminase obtained from calf intestine (Bos taurus, UniProt P56658).
T1 construct: purchased
T1 sequence (P56658 1-363): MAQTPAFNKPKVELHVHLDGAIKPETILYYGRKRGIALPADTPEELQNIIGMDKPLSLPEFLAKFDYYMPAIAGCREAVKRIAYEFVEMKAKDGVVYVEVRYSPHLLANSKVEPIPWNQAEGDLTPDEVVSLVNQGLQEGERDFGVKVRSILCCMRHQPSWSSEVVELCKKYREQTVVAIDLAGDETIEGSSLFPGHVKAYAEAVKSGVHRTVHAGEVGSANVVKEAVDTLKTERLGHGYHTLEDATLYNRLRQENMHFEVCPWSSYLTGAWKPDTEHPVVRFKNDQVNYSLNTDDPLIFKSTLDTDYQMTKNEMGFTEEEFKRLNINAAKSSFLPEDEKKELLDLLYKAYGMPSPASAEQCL
The experiment in a line: Inhibition of the action of adenosine deaminase in vitro (decrease in absorbance at 265 nm). In kind it is biochemical. The note with it: pH 7.4, 30° C. The method, then:
This test was performed with adenosine deaminase obtained from calf intestine.
(§1) The experimental procedure described hereunder was used:
In the absorption cell the following solutions were introduced:
2.7 ml of a 0.1 molar phosphate buffer solution (pH=7.4)
0.3 ml of a 10^-4 or 5.10^-4 molar solution of adenosine in the phosphate buffer solution (final concentration in adenosine: 10^-5 or 5.10^-5 mol) 0.01 ml of a 3.10^-3 molar ethanolic solution of the compound to be studied (about 10 milliunits)
The contents of the absorption cell were allowed to incubate for 2 minutes and then the enzymatic reaction was started by adding 0.03 ml of a commercial adenosine deaminase solution having a known concentration in enzyme. The reaction was performed at 30° C. and followed by spectrophotometric recording of the decrease in absorbance at 265 nm due to the transformation of adenosine into inosine by means of adenosine deaminase. This enzymatic reaction can be represented by the following equation: [formula]
The same measurements were performed with a control solution containing all the ingredients referred to above except the compound being studied. Curves were then plotted representing the decrease in absorbance in comparison with time obtained on the one hand with the solution containing the inhibitor and on the other with the control solution.
The slope of both curves was measured and expressed in the number of mols of inosine formed in one minute. After that, the percent of inhibition of the activity of adenosine deaminase provoked by a compound of the invention was calculated.

For data set [2], the target named is T2, adenosine deaminase in ascites cells (Krebs II) (Mus musculus, UniProt P03958).
T2 construct: tested in intact cells by incubating ascites cells (Krebs II); endogenous in cells; host or cells: Krebs II ascites cells
T2 sequence (P03958 1-352): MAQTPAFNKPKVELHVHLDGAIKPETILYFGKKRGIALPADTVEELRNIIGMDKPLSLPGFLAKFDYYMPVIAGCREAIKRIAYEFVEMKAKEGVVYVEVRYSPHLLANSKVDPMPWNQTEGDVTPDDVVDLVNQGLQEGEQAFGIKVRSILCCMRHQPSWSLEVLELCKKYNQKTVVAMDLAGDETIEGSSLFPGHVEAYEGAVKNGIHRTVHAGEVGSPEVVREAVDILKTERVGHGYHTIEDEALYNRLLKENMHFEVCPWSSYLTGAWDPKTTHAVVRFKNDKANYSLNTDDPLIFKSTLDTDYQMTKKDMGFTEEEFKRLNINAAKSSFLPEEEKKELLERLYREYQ
The experiment in a line: Inhibition of adenosine deamination in intact ascites cells (14C adenosine). The class given is cell-based. The settings on record: 14C adenosine 5.10^-5 M, read-out: concentration at which deamination of adenosine by ascites cells was 50% inhibited (converted). Here is the method:
The inhibition of the action of adenosine deaminase by these two above-cited compounds has also been tested in intact cells by incubating ascites cells (Krebs II) in the presence of ^14 C adenosine at a concentration of 5.10^-5 M and by measuring the formation of inosine and hypoxanthine ^14 C. The deamination of adenosine due to the ascites cells was 50% inhibited in the presence of 2.10^-6 M of 1-bromo-2-phenyl-3-(3-bromo-4-hydroxy-benzoyl)-indolizine and of 10^-6 M of 1-bromo-2-(4-fluoro-phenyl)-3-(3-bromo-4-hydroxy-benzoyl)-indolizine.

Data set [3] can be described thus: Acute toxicity tests in mice. The class given is in vivo. The note with it: 20 mg/kg by intravenous route. The method, then: Acute toxicity tests were performed in mice with compounds of the invention.
For data set [4], the target named is T1, adenosine deaminase obtained from calf intestine. Nature of the data set: Inhibition of the action of adenosine deaminase in vitro (decrease in absorbance at 265 nm). The note with it: compound at a concentration of 10^-6 M. In kind it is biochemical.
The target in data set [5] is T3, xanthine oxidase found in milk (Bos taurus, UniProt P80457).
T3 construct: purchased
The experiment in a line: Inhibition of the action of xanthine oxidase in vitro (U.V. spectrophotometry, formation of uric acid from hypoxanthine). The class given is biochemical. The note with it: compound at 10^-5 M; hypoxanthine substrate, pH 7.4, 37° C. Here is the method:
This trial was performed with xanthine oxidase found in milk. The activity of the enzymatic preparation was measured by following the formation of uric acid starting from hypoxanthine in the presence of oxygen and of a phosphate buffer solution.
as §1
In the absorption cell, the following solutions were introduced:
1.5 ml of a 0.1 molar phosphate buffer solution (pH=7.4) saturated with oxygen.
0.3 ml of a 1 m molar solution of ethylene diamine tetraacetate.
0.01 ml of a commercial xanthine oxidase solution having a known concentration in enzyme.
0.01 ml of a 3.10^-3 molar ethanolic solution of the compound to be tested.
The contents of the absorption cell were allowed to incubate for 2 minutes and then the enzymatic reaction was started by adding 0.3 ml of a 10^-3 molar solution of hypoxanthine to the absorption cell. The reaction was followed by spectrophotometric recording of the oxidation rate of hypoxanthine at 293 nm and at 37° C. The optical density was automatically registered. The same measurements were performed with a control solution containing all the ingredients referred to above except the compound being tested.
In this way, a curve representing the variation in optical density in comparison with time was obtained with the solution containing the inhibitor on the one hand and devoid of inhibitor on the other. The slope of both curves was measured and expressed in the number of mols of uric acid formed in one minute. Thus, it was possible to compare the values obtained and calculate, in percent, the inhibition of the activity of xanthine oxidase provoked by a compound of the invention.

Data set [6] can be described thus: Uricosuric action in humans after a single oral dose. In kind it is in vivo. The note with it: single oral dose 300 mg. Here is the method: The uricosuric action was determined in humans after a single dose of 300 mg of 2-ethyl-3-(3,5-dibromo-4-hydroxy-benzoyl)-indolizine by oral route.
For data set [7], the target named is T3, xanthine oxidase found in milk. The experiment in a line: Inhibition of the action of xanthine oxidase in vitro (U.V. spectrophotometry, formation of uric acid from hypoxanthine). In kind it is biochemical. The settings on record: compound at a concentration of 10^-6 M.
The test system of a further data set is HSV-1 (KOS). Nature of the data set: Herpetic skin lesions and mortality of nu/nu mice inoculated with HSV-1 (KOS), topical Ara-A and/or compound. The class given is in vivo. The settings on record: topical 1% in dimethylsulfoxide, 4 times daily days 0-4. The method, then:
This test was carried out in order to determine the effects of adenine arabinoside (Ara-A) and compounds of the invention on the incidence of herpetic skin lesions and mortality of nu/nu mice inoculated with HSV-1 (KOS). Athymic nude (nu/nu) mice, 20 to 25 days old, were inoculated intracutaneously with HSV-1 (KOS) at about 10^4.5 PFU (plaque-forming units) per mouse. Ara-A and/or a compound of the invention were applied topically at 1% in dimethylsulfoxide, 4 times daily on days 0, 1, 2, 3 and 4. The number of mice with epidermal lesion (necrosis of at least 5 to 10 mm long) per total number of mice alive was registered.

T3 sequence (P80457 whole entry): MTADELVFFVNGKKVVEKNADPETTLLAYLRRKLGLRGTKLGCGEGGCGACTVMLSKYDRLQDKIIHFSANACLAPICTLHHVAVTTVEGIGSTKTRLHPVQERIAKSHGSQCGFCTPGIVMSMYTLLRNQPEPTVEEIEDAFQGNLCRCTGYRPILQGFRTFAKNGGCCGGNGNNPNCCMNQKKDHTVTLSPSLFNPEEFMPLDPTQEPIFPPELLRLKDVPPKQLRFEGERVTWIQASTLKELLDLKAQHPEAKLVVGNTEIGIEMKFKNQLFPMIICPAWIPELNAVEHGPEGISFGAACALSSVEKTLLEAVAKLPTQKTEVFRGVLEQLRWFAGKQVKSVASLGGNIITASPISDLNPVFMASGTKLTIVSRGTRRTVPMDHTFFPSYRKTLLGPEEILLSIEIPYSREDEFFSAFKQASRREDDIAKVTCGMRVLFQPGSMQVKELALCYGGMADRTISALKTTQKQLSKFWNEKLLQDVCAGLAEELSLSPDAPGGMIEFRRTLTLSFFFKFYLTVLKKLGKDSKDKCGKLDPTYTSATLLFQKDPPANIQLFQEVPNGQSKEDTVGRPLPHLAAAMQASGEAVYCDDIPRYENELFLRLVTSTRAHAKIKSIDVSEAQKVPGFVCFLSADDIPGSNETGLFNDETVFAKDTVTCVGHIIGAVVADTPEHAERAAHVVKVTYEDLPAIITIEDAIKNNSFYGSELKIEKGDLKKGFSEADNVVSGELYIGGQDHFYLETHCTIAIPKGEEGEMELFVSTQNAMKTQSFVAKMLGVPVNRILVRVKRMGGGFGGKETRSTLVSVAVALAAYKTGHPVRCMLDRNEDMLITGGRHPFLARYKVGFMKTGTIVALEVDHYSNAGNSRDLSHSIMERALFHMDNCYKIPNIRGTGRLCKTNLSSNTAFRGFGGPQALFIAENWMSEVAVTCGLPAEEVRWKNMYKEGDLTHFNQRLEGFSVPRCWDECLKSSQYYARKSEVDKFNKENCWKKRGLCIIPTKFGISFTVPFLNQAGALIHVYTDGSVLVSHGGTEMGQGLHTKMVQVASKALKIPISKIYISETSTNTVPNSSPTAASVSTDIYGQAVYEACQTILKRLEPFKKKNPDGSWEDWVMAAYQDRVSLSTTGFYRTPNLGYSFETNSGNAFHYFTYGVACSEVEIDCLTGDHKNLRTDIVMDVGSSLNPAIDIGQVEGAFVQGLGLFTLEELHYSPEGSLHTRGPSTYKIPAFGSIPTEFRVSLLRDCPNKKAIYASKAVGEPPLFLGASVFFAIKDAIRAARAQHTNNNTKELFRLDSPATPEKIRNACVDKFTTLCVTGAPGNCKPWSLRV

As to `O=C(c1ccc(O)c(Br)c1)c1c(-c2ccc(F)cc2)c(Br)c2ccccn12` [4-Fluoro-phenyl Br Br H, 1-Bromo-2-(4-fluoro-phenyl)-3-(3-bromo-4-hydroxy-benzoyl)-indolizine], in data set [1], the “Inhibition of the action of adenosine deaminase in vitro (in %) At 5.10^-5 M adenosine” value (“Inhibition … (in %) At 5.10^-5 M adenosine” for short) is given as 94% and the “Inhibition of the action of adenosine deaminase in vitro (in %) At 10^-5 M adenosine” value (from here on “Inhibition … (in %) At 10^-5 M adenosine”) amounted to 100%. For the same compound, in data set [2], the IC50 is 1000 nM. Also, in data set [3], the “deaths after 14 days” value is on record as “on death was registered”. The inhibition at 1 µM in data set [4] worked out at 86%.

In data set [5], `CCc1cc2ccccn2c1C(=O)c1cc(Br)c(O)c(Br)c1` [Ethyl H Br Br, 2-Ethyl-3-(3,5-dibromo-4-hydroxy-benzoyl)-indolizine] displayed an inhibition at 10 µM of 98%. In addition, in data set [6] (human, plasma, read-out: time of highest plasmatic level), the Tmax is 5 h. Further, in data set [6] (24 hours), the “mean increase of urinary excretion of uric acid in 24 hours” value is 22%. In data set [6] (by the 5th hour), the lowering of uricemia was 9%. The “increase of urinary excretion of uric acid” value in data set [6] (period between 12th and 24th hour) was determined as 40%.

As for `CCc1cc2ccccn2c1C(=O)c1ccc(O)c(Cl)c1` [Ethyl H H Cl, 2-Ethyl-3-(3-chloro-4-hydroxy-benzoyl)-indolizine], in data set [5], testing at 10 µM gave an inhibition of 87%.

In turn, `CCc1cc2ccccn2c1C(=O)c1ccc(O)c(OC)c1` [Ethyl H H OCH3, 2-Ethyl-2-(3-methoxy-4-hydroxy-benzoyl)-indolizine] returned an inhibition at 10 µM in data set [5] of 57%.

As to `CC(C)c1cc2ccccn2c1C(=O)c1cc(Br)c(O)c(Br)c1` [Isopropyl H Br Br, 2-Isopropyl-3-(3,5-dibromo-4-hydroxy-benzoyl)-indolizine], the inhibition at 10 µM in data set [5] was determined as 99%. The compound further showed an inhibition at 1 µM in data set [7] of 84%.

Compound `CC(C)c1cc2ccccn2c1C(=O)c1cc(Cl)c(O)c(Cl)c1` [Isopropyl H Cl Cl, 2-Isopropyl-3-(3,5-dichloro-4-hydroxy-benzoyl)-indolizine] returned an inhibition at 10 µM in data set [5] of 96%. Further, the “Inhibition … (in %) At 5.10^-5 M adenosine” value in data set [1] was found to be 76%.

As for `CC(C)c1cc2ccccn2c1C(=O)c1ccc(O)c(Br)c1` [Isopropyl H H Br, 2-Isopropyl-3-(3-bromo-4-hydroxy-benzoyl)-indolizine], testing at 10 µM in data set [5] gave an inhibition of 94%.

With `CC(C)c1cc2ccccn2c1C(=O)c1ccc(O)c(Cl)c1` [Isopropyl H H Cl, 2-Isopropyl-3-(3-chloro-4-hydroxy-benzoyl)-indolizine], the inhibition at 10 µM in data set [5] stood at 88%.

In turn, `Cc1c(Br)c2ccccn2c1C(=O)c1cc(Cl)c(O)c(Cl)c1` [Methyl Br Cl Cl, 1-Bromo-2-methyl-3-(3,5-dichloro-4-hydroxy-benzoyl)-indolizine] displayed an inhibition at 10 µM in data set [5] of 46%.

In data set [5], `Cc1c(Br)c2ccccn2c1C(=O)c1ccc(O)c(Cl)c1` [Methyl Br Cl H, 1-Bromo-2-methyl-3-(3-chloro-4-hydroxy-benzoyl)-indolizine] displayed an inhibition at 10 µM of 44%.

In data set [5], `Cc1cc2ccccn2c1C(=O)c1cc(Br)c(O)c(Br)c1` [Methyl H Br Br, 2-Methyl-3-(3,5-dibromo-4-hydroxybenzoyl)-indolizine] yielded an inhibition at 10 µM of 91%.

As to `Cc1cc2ccccn2c1C(=O)c1cc(Cl)c(O)c(Cl)c1` [Methyl H Cl Cl, 2-Methyl-3-(3,5-dichloro-4-hydroxy-benzoyl)-indolizine], in data set [5], the inhibition at 10 µM amounted to 84%.

Compound `Cc1cc2ccccn2c1C(=O)c1ccc(O)c(Br)c1` [Methyl H H Br, 2-Methyl-3-(3-bromo-4-hydroxy-benzoyl)-indolizine] yielded an inhibition at 10 µM in data set [5] of 74%.

`O=C(c1cc(Br)c(O)c(Br)c1)c1c(-c2ccccc2)c(Br)c2ccccn12` [Phenyl Br Br Br, 1-Bromo-2-phenyl-3-(3,5-dibromo-4-hydroxy-benzoyl)-indolizine]: in data set [5], the inhibition at 10 µM was found to be 48%. Also, in data set [1], the “Inhibition … (in %) At 5.10^-5 M adenosine” value was 22% and the “Inhibition … (in %) At 10^-5 M adenosine” value was determined as 53%.

`O=C(c1ccc(O)c(Br)c1)c1c(-c2ccccc2)c(Br)c2ccccn12` [Phenyl Br Br H, 1-Bromo-2-phenyl-3-(3-bromo-4-hydroxy-benzoyl)-indolizine]: in data set [1], the “Inhibition … (in %) At 5.10^-5 M adenosine” value worked out at 88% and the “Inhibition … (in %) At 10^-5 M adenosine” value is given as 100%. Also, the IC50 in data set [2] was 2000 nM. In the data set with HSV-1 (KOS), the “effect on the antiviral (anti-herpetic) activity of adenine arabinoside (Ara-A)” value is listed as “potentiates the antiviral activity of adenine arabinoside”. Also, the “deaths after 14 days” value in data set [3] is recorded as “on death was registered”. Also, the inhibition at 1 µM in data set [4] amounted to 80%.

Turning to `CCCc1c(Br)c2ccccn2c1C(=O)c1cc(Br)c(O)c(Br)c1` [n-Propyl Br Br Br, 1-Bromo-2-n-propyl-3-(3,5-dibromo-4-hydroxy-benzoyl)-indolizine], the inhibition at 10 µM in data set [5] was found to be 95%.

`CCCc1c(Br)c2ccccn2c1C(=O)c1ccc(O)c(Br)c1` [n-Propyl Br Br H, 1-Bromo-2-n-propyl-3-(3-bromo-4-hydroxy-benzoyl)-indolizine] yielded an inhibition at 10 µM in data set [5] of 97%.

In the case of `CCCc1c(Br)c2ccccn2c1C(=O)c1ccc(O)c(Cl)c1` [n-Propyl Br H Cl, 1-Bromo-2-n-propyl-3-(3-chloro-4-hydroxy-benzoyl)-indolizine], the inhibition at 10 µM in data set [5] is 84%.
